Columns and labels:
Experiment in all cases: biochemical
Format in all cases: binding
[1] = target: T1, panel of 442 kinases (Homo sapiens, UniProt O14730); conditions: kinase RIOK3; for remaining activity at 1 µM: read-out: RIOK3 (% of control at 1 µM)
T1 construct: purchased Ambit Biosciences (scanMAXX KINOMEscan)
T1 sequence (O14730 1-519): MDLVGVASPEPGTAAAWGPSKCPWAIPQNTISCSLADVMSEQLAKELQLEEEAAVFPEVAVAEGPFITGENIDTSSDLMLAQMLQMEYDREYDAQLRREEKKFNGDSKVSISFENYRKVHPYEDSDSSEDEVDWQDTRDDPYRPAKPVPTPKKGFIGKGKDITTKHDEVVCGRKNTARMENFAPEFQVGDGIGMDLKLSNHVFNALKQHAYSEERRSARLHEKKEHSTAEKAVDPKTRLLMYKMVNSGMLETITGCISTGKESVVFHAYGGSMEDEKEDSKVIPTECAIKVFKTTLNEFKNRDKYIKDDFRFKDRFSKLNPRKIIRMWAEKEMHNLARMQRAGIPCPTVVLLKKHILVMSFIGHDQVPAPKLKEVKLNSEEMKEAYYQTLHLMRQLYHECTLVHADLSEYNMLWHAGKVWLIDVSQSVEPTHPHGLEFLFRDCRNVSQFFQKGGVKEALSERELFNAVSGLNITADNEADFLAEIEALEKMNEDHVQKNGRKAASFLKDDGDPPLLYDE

[2] = target: T2, panel of 442 kinases (Homo sapiens, UniProt O75716); conditions: kinase STK16; for remaining activity at 1 µM: read-out: STK16 (% of control at 1 µM)
T2 construct: purchased Ambit Biosciences (scanMAXX KINOMEscan)
T2 sequence (O75716 whole entry): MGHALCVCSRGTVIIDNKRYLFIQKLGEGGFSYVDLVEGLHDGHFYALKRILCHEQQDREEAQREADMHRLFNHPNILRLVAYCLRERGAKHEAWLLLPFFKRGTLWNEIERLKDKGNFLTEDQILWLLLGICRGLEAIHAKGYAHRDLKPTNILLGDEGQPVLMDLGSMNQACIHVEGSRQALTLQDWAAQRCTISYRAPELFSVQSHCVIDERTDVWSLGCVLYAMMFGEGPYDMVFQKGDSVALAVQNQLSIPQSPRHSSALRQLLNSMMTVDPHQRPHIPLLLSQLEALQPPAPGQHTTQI

[3] = target: T3, panel of 442 kinases (Homo sapiens, UniProt P08581); conditions: kinase MET; for remaining activity at 1 µM: read-out: % of control at 1 µM
T3 construct: purchased Ambit Biosciences (scanMAXX KINOMEscan)
T3 sequence (P08581 25-1390): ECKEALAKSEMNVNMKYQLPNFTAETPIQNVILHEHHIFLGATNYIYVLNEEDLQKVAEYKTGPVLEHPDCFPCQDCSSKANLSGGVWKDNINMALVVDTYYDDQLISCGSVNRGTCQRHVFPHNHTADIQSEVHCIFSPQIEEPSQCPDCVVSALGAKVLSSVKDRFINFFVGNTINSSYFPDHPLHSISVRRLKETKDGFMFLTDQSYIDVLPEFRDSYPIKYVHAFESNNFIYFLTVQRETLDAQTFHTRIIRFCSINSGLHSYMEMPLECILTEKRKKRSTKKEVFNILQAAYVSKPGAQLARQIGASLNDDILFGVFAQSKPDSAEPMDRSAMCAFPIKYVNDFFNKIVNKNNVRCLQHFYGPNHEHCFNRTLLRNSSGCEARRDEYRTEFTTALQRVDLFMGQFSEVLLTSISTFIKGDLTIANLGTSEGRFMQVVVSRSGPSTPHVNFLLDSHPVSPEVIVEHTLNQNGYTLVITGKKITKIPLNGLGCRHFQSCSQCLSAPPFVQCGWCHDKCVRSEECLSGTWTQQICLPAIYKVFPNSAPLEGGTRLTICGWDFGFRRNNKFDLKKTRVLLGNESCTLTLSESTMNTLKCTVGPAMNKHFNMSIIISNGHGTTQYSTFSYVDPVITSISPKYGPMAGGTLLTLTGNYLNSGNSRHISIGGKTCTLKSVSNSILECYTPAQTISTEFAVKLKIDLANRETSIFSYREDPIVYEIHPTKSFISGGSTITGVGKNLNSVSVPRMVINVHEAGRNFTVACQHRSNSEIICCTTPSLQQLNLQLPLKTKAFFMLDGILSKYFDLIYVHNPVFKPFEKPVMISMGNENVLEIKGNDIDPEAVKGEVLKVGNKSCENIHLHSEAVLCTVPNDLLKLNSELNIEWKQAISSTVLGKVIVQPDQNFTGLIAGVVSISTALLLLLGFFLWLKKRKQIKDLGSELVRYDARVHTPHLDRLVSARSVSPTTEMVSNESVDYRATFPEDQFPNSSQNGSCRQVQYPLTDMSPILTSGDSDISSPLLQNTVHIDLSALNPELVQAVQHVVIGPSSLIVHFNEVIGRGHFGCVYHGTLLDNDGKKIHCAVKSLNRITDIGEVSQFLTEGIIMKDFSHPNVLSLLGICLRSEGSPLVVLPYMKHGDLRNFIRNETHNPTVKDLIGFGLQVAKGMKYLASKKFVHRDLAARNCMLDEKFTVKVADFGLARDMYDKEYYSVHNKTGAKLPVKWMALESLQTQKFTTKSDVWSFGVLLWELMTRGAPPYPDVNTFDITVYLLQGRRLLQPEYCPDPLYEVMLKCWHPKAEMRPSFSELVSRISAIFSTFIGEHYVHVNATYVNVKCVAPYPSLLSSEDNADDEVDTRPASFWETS

[4] = target: T4, panel of 442 kinases (Homo sapiens, UniProt P15735); conditions: kinase PHKG2; for remaining activity at 1 µM: read-out: % of control at 1 µM
T4 construct: purchased Ambit Biosciences (scanMAXX KINOMEscan)
T4 sequence (P15735 1-406): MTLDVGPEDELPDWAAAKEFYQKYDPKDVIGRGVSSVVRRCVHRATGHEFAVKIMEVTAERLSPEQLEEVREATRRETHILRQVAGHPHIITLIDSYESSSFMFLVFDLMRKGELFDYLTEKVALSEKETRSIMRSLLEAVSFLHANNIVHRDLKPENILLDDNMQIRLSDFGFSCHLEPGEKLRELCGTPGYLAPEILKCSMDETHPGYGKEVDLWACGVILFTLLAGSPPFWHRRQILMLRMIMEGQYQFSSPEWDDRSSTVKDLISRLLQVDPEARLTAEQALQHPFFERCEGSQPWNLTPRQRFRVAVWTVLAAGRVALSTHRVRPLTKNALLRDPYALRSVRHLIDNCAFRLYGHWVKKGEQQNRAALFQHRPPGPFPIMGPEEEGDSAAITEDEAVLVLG

[5] = target: T5, panel of 442 kinases (Homo sapiens, UniProt P54760); conditions: EPHB4; for remaining activity at 1 µM: read-out: % of control at 1 µM
T5 construct: purchased Ambit Biosciences (scanMAXX KINOMEscan)
T5 sequence (P54760 16-987): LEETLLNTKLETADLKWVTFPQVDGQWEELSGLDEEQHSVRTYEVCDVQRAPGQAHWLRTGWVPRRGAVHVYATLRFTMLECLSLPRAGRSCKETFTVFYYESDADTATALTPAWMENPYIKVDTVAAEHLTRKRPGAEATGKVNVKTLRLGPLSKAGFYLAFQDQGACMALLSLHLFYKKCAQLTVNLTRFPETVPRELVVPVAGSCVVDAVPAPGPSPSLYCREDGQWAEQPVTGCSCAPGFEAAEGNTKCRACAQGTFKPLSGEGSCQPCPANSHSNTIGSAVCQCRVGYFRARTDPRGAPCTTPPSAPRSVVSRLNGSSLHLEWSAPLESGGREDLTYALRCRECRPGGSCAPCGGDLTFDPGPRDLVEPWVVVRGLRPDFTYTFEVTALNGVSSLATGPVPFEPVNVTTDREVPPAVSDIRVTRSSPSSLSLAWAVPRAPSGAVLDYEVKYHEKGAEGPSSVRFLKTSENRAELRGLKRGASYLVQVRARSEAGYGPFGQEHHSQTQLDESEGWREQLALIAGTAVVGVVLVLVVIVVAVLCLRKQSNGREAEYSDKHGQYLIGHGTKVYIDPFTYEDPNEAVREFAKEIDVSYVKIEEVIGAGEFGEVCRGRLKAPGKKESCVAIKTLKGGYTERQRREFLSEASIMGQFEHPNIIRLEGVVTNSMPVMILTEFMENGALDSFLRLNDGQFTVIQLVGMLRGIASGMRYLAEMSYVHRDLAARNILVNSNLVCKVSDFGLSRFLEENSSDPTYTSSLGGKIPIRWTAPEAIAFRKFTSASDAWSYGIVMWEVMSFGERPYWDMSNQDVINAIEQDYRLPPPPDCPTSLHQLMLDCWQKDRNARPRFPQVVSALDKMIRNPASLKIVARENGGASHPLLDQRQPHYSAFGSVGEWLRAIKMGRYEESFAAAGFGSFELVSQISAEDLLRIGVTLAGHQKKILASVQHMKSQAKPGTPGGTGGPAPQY

[6] = target: T6, panel of 442 kinases (Homo sapiens, UniProt Q00526); conditions: CDK3; for remaining activity at 1 µM: read-out: % of control at 1 µM
T6 construct: purchased Ambit Biosciences (scanMAXX KINOMEscan)
T6 sequence (Q00526 whole entry): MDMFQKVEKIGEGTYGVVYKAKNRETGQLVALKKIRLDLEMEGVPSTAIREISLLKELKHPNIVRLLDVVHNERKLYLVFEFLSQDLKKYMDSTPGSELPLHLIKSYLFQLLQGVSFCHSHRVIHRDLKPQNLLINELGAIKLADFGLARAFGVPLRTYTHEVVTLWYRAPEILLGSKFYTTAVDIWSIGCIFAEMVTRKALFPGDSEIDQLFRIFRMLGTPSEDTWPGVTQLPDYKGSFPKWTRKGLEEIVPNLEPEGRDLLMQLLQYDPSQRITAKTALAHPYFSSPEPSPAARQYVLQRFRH

[7] = target: T7, panel of 442 kinases (Homo sapiens, UniProt Q96Q40); conditions: kinase PFTAIRE2; for remaining activity at 1 µM: read-out: % of control at 1 µM
T7 construct: purchased Ambit Biosciences (scanMAXX KINOMEscan)
T7 sequence (Q96Q40 whole entry): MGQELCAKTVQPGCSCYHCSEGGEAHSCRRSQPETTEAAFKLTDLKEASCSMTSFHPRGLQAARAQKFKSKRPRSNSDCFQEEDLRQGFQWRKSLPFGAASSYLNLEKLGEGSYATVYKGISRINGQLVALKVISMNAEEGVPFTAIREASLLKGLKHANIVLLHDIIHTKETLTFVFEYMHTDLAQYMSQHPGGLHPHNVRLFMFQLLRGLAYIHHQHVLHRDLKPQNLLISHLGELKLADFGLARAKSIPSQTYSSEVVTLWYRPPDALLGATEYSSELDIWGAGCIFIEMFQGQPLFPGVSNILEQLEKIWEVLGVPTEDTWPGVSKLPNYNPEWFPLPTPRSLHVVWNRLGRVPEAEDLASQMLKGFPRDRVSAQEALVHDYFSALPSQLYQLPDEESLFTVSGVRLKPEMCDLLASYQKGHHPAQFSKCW

[8] = target: T8, panel of 442 kinases (Homo sapiens, UniProt Q9HC98); conditions: kinase NEK6; for remaining activity at 1 µM: read-out: % of control at 1 µM
T8 construct: purchased Ambit Biosciences (scanMAXX KINOMEscan)
T8 sequence (Q9HC98 whole entry): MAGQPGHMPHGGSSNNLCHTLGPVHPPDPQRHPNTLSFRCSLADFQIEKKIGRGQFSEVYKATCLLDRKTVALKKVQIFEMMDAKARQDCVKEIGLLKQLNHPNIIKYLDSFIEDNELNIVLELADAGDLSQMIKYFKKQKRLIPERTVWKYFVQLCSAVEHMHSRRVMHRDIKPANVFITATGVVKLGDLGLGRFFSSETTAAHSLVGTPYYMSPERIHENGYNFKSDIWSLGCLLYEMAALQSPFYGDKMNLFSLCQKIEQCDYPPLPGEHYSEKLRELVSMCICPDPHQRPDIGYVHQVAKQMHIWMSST

[9] = target: T9, panel of 442 kinases (Homo sapiens, UniProt Q9UQB9); conditions: AURKC; for remaining activity at 1 µM: read-out: % of control at 1 µM
T9 construct: purchased Ambit Biosciences (scanMAXX KINOMEscan)
T9 sequence (Q9UQB9 1-309): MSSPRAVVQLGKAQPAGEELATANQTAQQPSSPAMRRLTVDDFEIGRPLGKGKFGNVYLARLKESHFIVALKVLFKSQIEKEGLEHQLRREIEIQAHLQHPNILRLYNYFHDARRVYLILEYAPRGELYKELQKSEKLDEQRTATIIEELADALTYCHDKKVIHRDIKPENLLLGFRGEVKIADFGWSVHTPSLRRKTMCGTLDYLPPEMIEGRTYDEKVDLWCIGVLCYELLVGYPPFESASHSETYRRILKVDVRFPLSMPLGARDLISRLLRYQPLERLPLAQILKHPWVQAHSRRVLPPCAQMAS

[10] = 10 µM, read-out: % of control at 10 µM

Row | SMILES | remaining activity at 1 µM [1] [%] | remaining activity at 10 µM ([1]; 10 µM, read-out: RIOK3 (% of control at 10 µM)) [%] | remaining activity at 1 µM [2] [%] | remaining activity at 10 µM ([2]; 10 µM, read-out: STK16 (% of control at 10 µM)) [%] | remaining activity at 1 µM [3] [%] | remaining activity at 10 µM [3, 10] [%] | remaining activity at 1 µM [4] [%] | remaining activity at 10 µM [4, 10] [%] | remaining activity at 1 µM [5] [%] | remaining activity at 10 µM [5, 10] [%] | remaining activity at 1 µM [6] [%] | remaining activity at 10 µM [6, 10] [%] | remaining activity at 1 µM [7] [%] | remaining activity at 10 µM [7, 10] [%] | remaining activity at 1 µM [8] [%] | remaining activity at 10 µM [8, 10] [%] | remaining activity at 1 µM [9] [%] | remaining activity at 10 µM [9, 10] [%]
1 | Nc1cc(C(F)(F)F)c(-c2cc(N3CCOCC3)nc(N3CCOCC3)n2)cn1 [Buparlisib] | 95 | 95 | 100 | 92 | 100 | 100 | 100 | 100 | 100 | 100 | 100 | 100 | 100 | 100 | 84 | 100 | 100 | 91
2 | Cn1c(=O)n(-c2ccc(C(C)(C)C#N)cc2)c2c3cc(-c4cnc5ccccc5c4)ccc3ncc21 [Dactolisib, 2-methyl-2-[4-(3-methyl-2-oxo-8-quinolin-3-yl-2,3-dihydroimidazo[4,5-c]quinolin-1-yl)-phenyl] propionitrile] | 70 |  | 100 |  |  |  | 100 |  | 97 |  | 100 |  | 82 |  | 100 |  | 87 | 
3 | COc1ncc(-c2ccc3nccc(-c4ccnnc4)c3c2)cc1NS(=O)(=O)c1ccc(F)cc1F [Omipalisib] | 95 |  | 42 |  | 99 |  | 100 |  | 100 |  | 82 |  | 100 |  | 100 |  | 100 | 
4 | FC(F)c1nc2ccccc2n1-c1nc(N2CCOCC2)nc(N2CCOCC2)n1 [ZSTK474, 2-(difluoromethyl)-1-[4,6-di(4-morpholinyl)-1,3,5-triazin-2-yl]-1H-benzimidazole] | 71 |  | 100 |  | 100 |  | 100 |  | 92 |  | 100 |  | 83 |  | 100 |  | 96 | 
